The record followed here is ChEMBL document CHEMBL1135516, “Three-dimensional quantitative structure-activity relationship analysis of ligand binding to human sequence antidigoxin monoclonal antibodies using comparative molecular field analysis” (J Med Chem, 2002).

Assay [1] has as its system Monoclonal antibody (mAb). Briefly: Binding affinity against murine monoclonal antibody (mAb)-40-50.
Assay [2] has as its target Monoclonal antibody (mAb). Briefly: Binding affinity against Monoclonal antibody mAB-1B3 using [3H]digitoxin as radioligand.
For assay [3], the system named is Monoclonal antibody (mAb). In words: Binding affinity against human monoclonal antibody (mAb)-7F2.
Assay [4] relates to Monoclonal antibody (mAb). Briefly: Binding affinity against human monoclonal antibody (mAb)-5C2.
The target of assay [5] is Monoclonal antibody (mAb). In words: Binding affinity against Monoclonal antibody mAB-1B3 using [3H]digoxin as radioligand.
For assay [6], the system named is Monoclonal antibody (mAb). In words: Binding affinity against human monoclonal antibody (mAb)-11E6.
Assay [7] addresses Monoclonal antibody (mAb). Briefly: Kinetic parameter against Monoclonal antibody mAB-1B3.
Assay [8] deals with Monoclonal antibody (mAb). Briefly: Binding affinity against human monoclonal antibody (mAb)-1B3.

The Ki is the equilibrium dissociation constant of an inhibitor or competing ligand from its target. A lower Ki goes with higher affinity. For orientation: Kd means the concentration at which binding is half-saturated. Read a low Kd as higher affinity.

As for `C[C@H]1O[C@@H](O[C@H]2[C@@H](O)C[C@H](O[C@H]3[C@@H](O)C[C@H](O[C@H]4CC[C@@]5(C)[C@H](CC[C@@H]6[C@@H]5C[C@@H](O)[C@]5(C)[C@@H](C7=CC(=O)OC7)CC[C@]65O)C4)O[C@@H]3C)O[C@@H]2C)C[C@H](O)[C@@H]1O` [DIGOXIN], the Relative Ki in assay [1] amounted to 1. For the same compound, the Ki is 0.8 nM in assay [2] and 1.2 nM in assay [5]. For the same compound, the IC50 ratio in assay [3], in assay [4], in assay [6] and in assay [8] was 1 each time. The compound further showed a Kd in assay [7] of 3.1 nM.
In assay [1], `C[C@H]1O[C@@H](O[C@H]2[C@@H](O)C[C@H](O[C@H]3[C@@H](O)C[C@H](O[C@H]4CC[C@@]5(C)[C@H](CC[C@@H]6[C@@H]5CC[C@]5(C)[C@@H](C7=CC(=O)OC7)CC[C@]65O)C4)O[C@@H]3C)O[C@@H]2C)C[C@H](O)[C@@H]1O` [DIGITOXIN] had a Relative Ki of 1. Also, the Ki in assay [2] was 0.2 nM; in assay [5], 0.1 nM. Moreover, the IC50 ratio was determined as 8 in assay [3], 10 in assay [4], 1.7 in assay [6] and 0.3 in assay [8]. In addition, in assay [7], the Kd was found to be 0.6 nM.
